Laboratory results taken from patent US9296785B2, “IL-13 receptor binding peptides” (Wake Forest University Health Sciences, priority 2009, dated 2016).

Experiments:
U-87 MG GBM cells = test: Morphology of U-87 MG GBM cells after treatment; assay type: cell-based; settings: over-expressor of IL-13Rα2, 1 to 20 μM or equimolar concentrations
Source text: (§1) We have designed double-specificity therapeutic delivery systems, which not only specifically recognize cancer cells, but also enable intracellular distribution of anti-cancer agents to their respective sites of action, like the cytosol, mitochondria and/or nucleus. Some cationic peptides lyse negatively charged mitochondrial membranes of a eukaryotic cell, leading to initiation of caspase-3 dependent cell death. We have chosen one such peptide, (KLAKLAK)2 [SEQ ID NO:1, KK] to target the mitochondria of glioblastoma multiforme (GBM) brain tumor cells. To target GBM cells, we exploited interleukin 13 receptor alpha 2 (IL-13Rα2), an IL-13 plasma membrane receptor which is over-expressed in 75% of GBM patients. To enable intracytosolic delivery of the KK peptide mediated first by the IL-13Rα2, we use Pseudomonas exotoxin A (PE) domain II [D2] based delivery vector. D2 of PE is responsible for the processing and translocation of the internalized toxin and any other protein/agent fused to its C-terminal end from the endosome to the cytosol. Thus, we have generated single chain fusion proteins composed of IL-13, D2 and KK: IL-13.D2 and IL-13.D2.KK, respectively. These proteins were expressed in BL21 (λDE3) E. coli under the bacteriophage T7 promoter control and were further processed and purified by the FPLC system to >95% purity. […]

U-251 MG GBM cells = test: Morphology of U-251 MG GBM cells after treatment; assay type: cell-based; settings: over-expressor of IL-13Rα2, 1 to 20 μM or equimolar concentrations
Source text: as §1

Q: Which “effect on cell morphology” value (U-87 MG GBM cells) does the source give for “(KLAKLAK)2 (KLAKLAKKLAKLAK; Amphipathic antimicrobial peptide sequence) [KK peptide]” here?
A: The value was “did not have any measurable effect”.

Q: What about the “effect on cell morphology” value (U-251 MG GBM cells) of the same substance?
A: The value was “did not have any measurable effect”.
